Columns and labels:
[1] = tested on: primary microglial cultures; assay: LPS stimulated TNF-α release, ELISA; format: cell-based, rat; conditions: TNF-α by ELISA
Description: (§1) FIG. 2 is a graph illustrating that sigma receptor activation reduces LPS-induced cytotoxin production. […] Nitric oxide levels were quantified using the Griess reaction while TNF-α levels were measured by ELISA.
(§2) To gauge anti-inflammatory action, primary microglial cultures will be treated with lipopolysaccharide, which elicits a robust inflammatory response from these cells. Compounds that are effective agonist stroke at delayed timepoints are able to block the LPS-induced inflammatory response in microglial cells. The inflammatory cytokine, TNF-α and nitric oxide are two inflammatory agents to be measured to determine anti-inflammatory action of the compound. […] Using these two in vitro screening methods, other compounds that will be useful in treating stroke will be discovered.
TNF-α ELISA-Capture antibody (#MAB510 anti-rat antibody TNF R&D biosysterns) will be diluted with 2 μg/ml in coating buffer and incubated at 4° C. overnight. The capture antibody will then coat a high protein binding 96 well plate. Each well of the 96 well plate will be aspirated and washed three times with wash buffer. […] During incubation, direct light will be avoided 50 μl of 1 M H2SO4 will be added to each well and optical density will be determined within 30 minutes using a microplate reader set at 450 nm.

[2] = tested on: primary microglial cultures; assay: LPS stimulated nitric oxide release, Griess reaction; format: cell-based, rat; conditions: nitric oxide by Griess reaction
Description: as §1, §2
Nitric Oxide Determination: The supematant from treated primary rat rnicrogiia cultures will be harvested, placed in 1.5 ml micro-centrifuge tubes and then centrifuged in a bench top micro-centrifuge at 13,000×g for 1 minute. The supernatant will be withdrawn and placed in a clean, labeled micro-centrifuge tube. Standards (between 100 μM and 1 μM) will be prepared by diluting stock 1 mM Sodium Nitrite, contained in the kit, with DMEM in 1.5 ml micro centrifuge tubes. […] The absorbance at 458 nm will be measured in a spectrophotometer capable of reading 96 well plates.

Cc1ccccc1N=C(N)Nc1ccccc1C [DTG]
LPS stimulated TNF-α release [1]: dose dependently reduced
LPS stimulated nitric oxide release [2]: dose dependently reduced
